These are literature values, as cited in article PMC12307812 (Nature Communications, 2025).

This series deals with TMPRSS2. Set-up: method as in earlier work. As to conditions: top 50 compounds by AUC, Figure 2 source data; cited from earlier work.

Consider `Cl.NCCNC(=O)c1ccc(Cl)cn1` [NCGC00167737-02], for which the “max response (%)” value is on record as -9.8855%. As for `CC(=O)Oc1cc(C(C)C)c(OCCN(C)C)cc1C` [NCGC00015678-10], the “max response (%)” value is -9.504%. With `CCC(=O)c1ccc2c(c1)N(CCCN(C)C)c1ccccc1S2.Cl` [NCGC00015838-06], the “max response (%)” value was -16.7557%. Consider `C=CCN1CC[C@]23CCCC[C@H]2[C@H]1Cc1ccc(O)cc13` [NCGC00162247-06], for which the “max response (%)” value is listed as -23.7786%. `CN[C@H]1C[C@@H](N)[C@H](O)[C@@H](O[C@@H]2O[C@H](CO)[C@H](O)[C@@H]3OC4(O[C@H]23)O[C@H]([C@@H](N)CO)[C@H](O)[C@H](O)[C@H]4O)[C@@H]1O` (some centres unmarked) [NCGC00188433-02]: the “max response (%)” value is -14.1688%. Turning to `CCOC(=O)Cn1cccc1-c1nc(-c2ccc(OC)cc2)c(-c2ccc(OC)cc2)s1` [NCGC00182996-01], the “max response (%)” value was -15.3817%. For the molecule `N=C(N)c1ccc(OCCCOc2ccc(C(=N)N)cc2Br)c(Br)c1` [NCGC00189076-01], the “max response (%)” value is -77.315%. On to `CC12CCC(CC1=O)C2(C)C` (centres unmarked) [NCGC00090730-03], for which the “max response (%)” value is reported as -1.87%. As to `COc1cc(N)c(Cl)cc1C(=O)NC1CCN(Cc2ccccc2)CC1` [NCGC00016951-05], the “max response (%)” value is reported as -0.1908%.

With `CC(C(=O)O)c1ccc(C(=O)c2cccs2)cc1` (centres unmarked) [NCGC00094916-06], the “max response (%)” value is reported as -15.5344%. Consider `CC(=O)Oc1cccc(O)c1` [NCGC00095054-05], for which the “max response (%)” value was -8.588%. Regarding `CC[C@H](C)[C@H]1O[C@]2(C=C[C@@H]1C)C[C@@H]1C[C@@H](C/C=C(\C)[C@@H](O[C@H]3C[C@H](OC)[C@@H](O[C@H]4C[C@H](OC)[C@@H](O)[C@H](C)O4)[C@H](C)O3)[C@@H](C)/C=C/C=C3\CO[C@@H]4[C@H](O)C(C)=C[C@@H](C(=O)O1)[C@]34O)O2` [NCGC00168290-05], the “max response (%)” value was -26.1435%. In the case of `CC=CC1C(C(=O)OCc2c(F)c(F)c(COC)c(F)c2F)C1(C)C` (centres unmarked) [NCGC00319021-01], the “max response (%)” value is reported as -16.0283%. For `Nc1ncnc2nc[nH]c12` [NCGC00094856-05], the “max response (%)” value is -3.511%.

In the case of `CN(C)C(=O)COC(=O)Cc1ccc(OC(=O)c2ccc(N=C(N)N)cc2)cc1.CS(=O)(=O)O` [NCGC00167526-02], the “max response (%)” value was -95.3053%. `CC(C)N(CCC(C(N)=O)(c1ccccc1)c1ccccn1)C(C)C` (centres unmarked) [NCGC00015358-18]: the “max response (%)” value is on record as -7.9771%. `CCCCc1cc2ccccc2c(OCCN(C)C)n1` [NCGC00016618-04]: the “max response (%)” value is -11.3359%.

For `Cc1ccc(S(=O)(=O)NC(=O)NN2CC3CCCC3C2)cc1` (centres unmarked) [NCGC00095107-09], the “max response (%)” value is recorded as -9.733%. Regarding `C=CC[C@@H]1/C=C(\C)C[C@H](C)C[C@H](OC)[C@H]2O[C@@](O)(C(=O)C(=O)N3CCCC[C@H]3C(=O)O[C@H](/C(C)=C/[C@@H]3CC[C@@H](O)[C@H](OC)C3)[C@H](C)[C@@H](O)CC1=O)[C@H](C)C[C@@H]2OC` [NCGC00163470-27], the “max response (%)” value is listed as -28.9699%. For the molecule `CN(C/C=C/c1ccccc1)Cc1cccc2ccccc12.Cl` [NCGC00179332-03], the “max response (%)” value is given as -15.3589%.

Regarding `CCOC(=O)COc1ccc2c(=O)cc(-c3ccccc3)oc2c1` [NCGC00182622-03], the “max response (%)” value is on record as -10.6731%.

In the case of `N=C(N)c1ccc(/C=C/c2ccc(C(=N)N)cc2O)cc1` [NCGC00166289-02], the “max response (%)” value is -82.5214%. For `Nc1nc2ccc(OC(F)(F)F)cc2s1` [NCGC00015882-15], the “max response (%)” value is listed as -16.2214%. For the molecule `CCCCCCCCCCCCCCCC[n+]1ccccc1.[Br-]` [NCGC00091023-06], the “max response (%)” value is listed as -21.1069%.

With `Cl.NCC1CCC(C(=O)Oc2ccc(CCC(=O)O)cc2)CC1` (centres unmarked) [NCGC00164584-03], the “max response (%)” value is -89.9618%.

Take `CC(CCc1ccccc1)NC(C)C(O)c1ccc(O)cc1` (centres unmarked) [NCGC00015716-09]: the “max response (%)” value was -20.1145%. In the case of `S=P(N1CC1)(N1CC1)N1CC1` [NCGC00095042-09], the “max response (%)” value is -29.4275%. `O=[N+]([O-])C(Br)(CO)CO` [NCGC00164057-03]: the “max response (%)” value is -6.336%.

Consider `C#C[C@]1(O)CC[C@H]2[C@@H]3CCC4=CC(=O)CCC4=C3C=C[C@@]21CC` [NCGC00167457-02], for which the “max response (%)” value is on record as -24.7304%.
